Reference: patent US20070066580A1, “Novel aldosterone antagonists and uses thereof” (Recordati Ireland Limited, priority 2005, published 2007)

Target: T1, ligand binding domain of the human mineralocorticoid receptor (hMR LBD) (Homo sapiens, UniProt P08235)
T1 construct: made in house; host or cells: Sf9 insect cells (baculovirus, pFastBac)
T1 sequence (P08235 729-984): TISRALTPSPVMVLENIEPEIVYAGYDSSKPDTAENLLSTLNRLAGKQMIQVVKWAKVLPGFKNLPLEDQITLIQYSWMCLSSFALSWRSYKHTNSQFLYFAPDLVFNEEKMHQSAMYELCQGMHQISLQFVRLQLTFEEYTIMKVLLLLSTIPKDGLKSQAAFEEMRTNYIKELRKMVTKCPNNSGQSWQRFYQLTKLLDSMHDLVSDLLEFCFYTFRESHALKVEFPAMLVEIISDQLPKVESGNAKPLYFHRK
Experiment: Mineralocorticoid receptor (MR) in vitro competitive binding assay, [3H]aldosterone displacement
Details: IR^TOTAL = sum of IR^AR/MR, IR^ER/MR, IR^GR/MR, IR^PR/MR
Description: Mineralocorticoid receptor (MR) binding assay: Spodoptera furgiperda (Sf9) insect cells (ATCC accession number CRL-1711) were maintained in culture in EX-CELL™ 420 serum free medium (JRH Biosciences, Inc.) at 27° C.
A recombinant baculovirus containing nucleotide sequences encoding the ligand binding domain of the human mineralocorticoid receptor (hMR) cloned into the pFastBac™ vector was generated using the Bac-to-Bac® Baculovirus Expression System Kit (Invitrogen) following the manufacturer's instructions. This recombinant baculovirus contains nucleotides 2401 through 3168 (SEQ ID NO: 13) of hMR, providing for expression of the ligand binding domain (LBD), amino acid residues 729-984 (SEQ ID NO: 14), of hMR (hMR LBD). Cultured Sf9 insect cells were transfected with this recombinant baculovirus following the manufacturer's instructions.
For the binding assay, a crude lysate of the hMR LBD-expressing insect cells was prepared. The crude lysate was diluted 12.5-fold with binding buffer (20 mM Tris-HCl pH 7.4, 1 mM EDTA, 1 mM dithiothreitol, 20 mM sodium tungstate, 50 mM KCl and 10% glycerol).
For the negative control sample, the diluted lysate was incubated with a 10 nM final concentration of the radioligand [1,2,6,7-^3H] aldosterone (Amersham Biosciences, catalogue # 434) for 3.5 h at 4° C. For test compounds and the positive control sample, the diluted lysate was incubated with various concentrations of test compound or with a 20 μM final concentration of spironolactone (Sigma, S-3378) as a reference compound for 45 min on ice, and was then incubated with a 10 nM final concentration of [1,2,6,7-^3H] aldosterone for 3.5 h at 4° C.
Using a CellHarvester (PerkinElmer, formerly Packard Biosciences), receptor/ligand complexes were retained on 96-well GF/B filters (PerkinElmer, formerly Packard Biosciences) while free radioligand passed through the filters. Scintillation counting of GF/B filter plates was performed using a TopCount NXT (PerkinElmer, formerly Packard Biosciences) to quantitate the amount of [1,2,6,7-^3H] aldosterone bound to the hMR LBD.
The IC50 of a test compound was determined from the concentration of test compound giving half-maximal displacement as obtained by nonlinear least-squares curve fitting to a one-site binding sigmoidal model using Prism 3.0 (Graph Pad Software, Inc., San Diego, US). The calculated IC50 values represent the average values calculated from the results of 1-3 experiments carried out in duplicate.
IC50 and inhibitory ratio calculations: To provide a measure of the potency of each test compound as an antagonist of MR, the IC50 of each test compound (IC50^Test) for ligand binding to MR and the IC50 of the known MR antagonists eplerenone (IC50^Ep) and spironolactone (IC50^Sp) for ligand binding to MR were used to calculate an IC50 ratio (RIC50) according to the following equations: RIC50^Ep/Test=IC50^Ep/IC50^Test and RIC50^Sp/Test=IC50^Sp/IC50^Test.
These individual inhibitory ratios were used to calculate a total inhibitory ratio (IR^TOTAL) according to the following equation: IR^TOTAL=IR^AR/MR+IR^ER/MR+IR^GR/MR+IR^PR/MR. B. Results and Discussion

CCS[C@@H]1CC2=CC(=O)CC[C@]2(C)C2=CC[C@@]3(C)C(CC[C@@]34CCC(=O)O4)C21 (some centres unmarked) [Example 13]
IR^TOTAL compared with the IR^TOTAL for eplerenone: at least an order of magnitude greater than the IR^TOTAL for eplerenone | IR^TOTAL compared with the IR^TOTAL for spironolactone: at least an order of magnitude greater than the IR^TOTAL for spironolactone
